Reference: patent US8592581B2, “Trisubstituted purine derivatives” (Cyclacel Limited, priority 2007, dated 2013)

How the values were obtained:
[1] = tested on: H460 non-small cell lung cancer (NSCLC) cell line; assay: Alamar blue cytotoxicity assay in H460 NSCLC tumour cell line; format: cell-based; conditions: H460 cells, 72 hours, average of three independent experiments
Method: (§1) In order to determine the cellular potency of the compounds, the cytotoxicity of each compound was determined against the H460 non-small cell lung cancer (NSCLC) cell line. Standard cytotoxicity methods were performed as follows: H460 cells were seeded in 96-well plates appropriately for their doubling time (3000 cells per well) in RPMI media containing 10% FCS and incubated overnight at 37° C., 5% CO2. The media was removed and 100 μl fresh media containing increasing concentrations of appropriate compound was added and the cells incubated for 72 hours at 37° C., 5% CO2. A 10% stock of alamar blue (Roche, Lewes, United Kingdom) was prepared in medium and 100 μl added to the cells which were incubated for 2 hours.

CYP2C19 = CYP2C19 (Homo sapiens (Human), UniProt P33261); assay: CYP2C19 inhibition, human liver microsomes, mephenyloin; format: in vitro ADME
CYP2C19, sequence (P33261 whole entry): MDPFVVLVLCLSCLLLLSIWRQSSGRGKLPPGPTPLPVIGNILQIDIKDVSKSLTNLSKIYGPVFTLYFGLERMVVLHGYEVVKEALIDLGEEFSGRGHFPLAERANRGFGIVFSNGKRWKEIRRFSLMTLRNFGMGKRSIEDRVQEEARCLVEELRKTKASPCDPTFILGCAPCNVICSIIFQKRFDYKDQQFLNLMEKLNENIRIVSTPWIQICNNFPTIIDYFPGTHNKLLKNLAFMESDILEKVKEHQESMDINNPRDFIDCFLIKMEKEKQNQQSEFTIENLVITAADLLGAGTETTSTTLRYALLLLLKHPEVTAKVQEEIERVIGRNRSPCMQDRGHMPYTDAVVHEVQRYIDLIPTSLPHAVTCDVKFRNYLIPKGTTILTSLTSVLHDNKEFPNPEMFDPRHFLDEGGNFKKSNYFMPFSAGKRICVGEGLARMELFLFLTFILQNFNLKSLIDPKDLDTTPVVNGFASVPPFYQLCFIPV
Method: Six test compound concentrations (0.05, 0.25, 0.5, 2.5, 5, 25 μM in DMSO; final DMSO concentration=0.25%) were incubated with human liver microsomes (0.5 mg/mL) and NADPH (1 mM) in the presence of the probe substrate mephenyloin (25 μM) for 60 min at 37° C. The selective CYP2C19 inhibitor, tranylcypromine, was screened alongside the test compounds as a positive control.
For the CYP1A incubations, the reactions were terminated by the addition of methanol, and the formation of the metabolite, resorufin, was monitored by fluorescence (excitation wavelength=535 nm, emission wavelength=595 nm). For the CYP2C9, CYP2C19, CYP2D6, and CYP3A4 incubations, the reactions were terminated by the addition of methanol containing internal standard. The samples were then centrifuged, and the supernatants were combined, for the simultaneous analysis of 4-hydroxytolbutamide, 4-hydroxymephenyloin, dextrorphan, and 1-hydroxymidazolam plus internal standard by LC-MS/MS using generic LC-MS/MS conditions. Formic acid in deionised water (final concentration=0.1%) was added to the final sample prior to analysis.

H358 = assay: Alamar blue cytotoxicity assay H358; format: cell-based; conditions: Homo sapiens, NCI-H358; 72 hours; read-out: cellular cytotoxicity IC50 H358
Method: as §1, with “a range of” for “the H460 non-small”, “lines.” for “lung cancer (NSCLC) cell line.”, “follows:” for “follows: H460”, “(2-5000” for “(3000”, “RPMI or DMEM” for “RPMI”, “hours. Absorbance was measured on the Wallac Victor 2 1420 multi-label counter at 544-595 nm.” for “hours.”

MESSA = assay: Alamar blue cytotoxicity assay MESSA; format: cell-based; conditions: Homo sapiens, MES-SA; 72 hours; read-out: cellular cytotoxicity IC50 MESSA
Method: as §1, with “a range of” for “the H460 non-small”, “lines.” for “lung cancer (NSCLC) cell line.”, “follows:” for “follows: H460”, “(2-5000” for “(3000”, “RPMI or DMEM” for “RPMI”, “hours. Absorbance was measured on the Wallac Victor 2 1420 multi-label counter at 544-595 nm.” for “hours.”

CYP2C9 = CYP2C9 (Homo sapiens (Human), UniProt P11712); assay: Cytochrome P450 substrate identification (Bactosomes) CYP2C9; format: in vitro ADME; conditions: pH 7.4, 5 μM test compound, up to 45 min, read-out: half life in the presence of CYP2C9
CYP2C9, sequence (P11712 whole entry): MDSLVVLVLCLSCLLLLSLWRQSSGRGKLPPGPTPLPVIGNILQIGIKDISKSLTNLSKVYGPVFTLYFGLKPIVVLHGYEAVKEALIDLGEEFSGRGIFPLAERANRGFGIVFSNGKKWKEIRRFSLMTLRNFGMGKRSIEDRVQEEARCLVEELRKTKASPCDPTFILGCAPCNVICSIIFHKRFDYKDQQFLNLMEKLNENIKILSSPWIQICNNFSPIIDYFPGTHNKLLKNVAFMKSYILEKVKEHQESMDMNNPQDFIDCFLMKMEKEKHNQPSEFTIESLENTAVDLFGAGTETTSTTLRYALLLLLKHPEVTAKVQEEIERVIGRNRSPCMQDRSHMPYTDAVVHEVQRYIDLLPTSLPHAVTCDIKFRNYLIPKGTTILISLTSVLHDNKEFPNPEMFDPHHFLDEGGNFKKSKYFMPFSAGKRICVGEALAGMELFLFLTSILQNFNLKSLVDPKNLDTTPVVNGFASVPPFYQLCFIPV
Method: cDNA expressed human CYP450 enzyme preparations co-expressed with human NADPH cytochrome P450 reductase (Bactosomes™) were supplied by Cypex Ltd. Bactosomes™ (final P450 concentration CYP1A2 100 pmol/mL, CYP2C8 50 pmol/mL, CYP2C9 25 pmol/mL, CYP2C19 100 pmol/mL, CYP2D6 50 pmol/mL and CYP3A4 25 pmol/mL), 0.1M phosphate buffer pH7.4 and test compound (final substrate concentration=5 μM; final DMSO concentration=0.25%) were pre-incubated at 37° C. prior to the addition of NADPH (final concentration=1 mM) to initiate the reaction. Incubations were also performed using control bactosomes (no P450 enzymes present) to reveal any non-enzymatic degradation. The final incubation volume was 25 μL. Compounds known to be metabolised specifically by each CYP450 isoform were used as control compounds.
Each compound was incubated singly for 0, 5, 15, 30 and 45 min with each CYP isoform. The reactions were stopped by the addition of 50 μL methanol containing internal standard at the appropriate time points. The incubation plates were centrifuged at 2500 rpm for 20 min at 4° C. to precipitate the protein. Following protein precipitation, the sample supernatants were combined in cassettes of up to four compounds and analysed using generic LC-MS/MS conditions.
The In peak area ratio (which has been corrected for any loss in the incubations with the control bactosomes) was plotted against time and the gradient of the line determined.
The elimination rate constant (k)=(−gradient)

LoVo = assay: Alamar blue cytotoxicity assay LoVo; format: cell-based; conditions: Homo sapiens, 72 hours, read-out: cellular cytotoxicity IC50 LoVo
Method: as §1, with “a range of” for “the H460 non-small”, “lines.” for “lung cancer (NSCLC) cell line.”, “follows:” for “follows: H460”, “(2-5000” for “(3000”, “RPMI or DMEM” for “RPMI”, “hours. Absorbance was measured on the Wallac Victor 2 1420 multi-label counter at 544-595 nm.” for “hours.”

NCI-H929 = assay: Alamar blue cytotoxicity assay NCI-H929; format: cell-based; conditions: Homo sapiens, 72 hours, read-out: cellular cytotoxicity IC50 NCI-H929
Method: as §1, with “a range of” for “the H460 non-small”, “lines.” for “lung cancer (NSCLC) cell line.”, “follows:” for “follows: H460”, “(2-5000” for “(3000”, “RPMI or DMEM” for “RPMI”, “hours. Absorbance was measured on the Wallac Victor 2 1420 multi-label counter at 544-595 nm.” for “hours.”

H1650 = assay: Alamar blue cytotoxicity assay H1650; format: cell-based; conditions: Homo sapiens, NCI-H1650; 72 hours; read-out: cellular cytotoxicity IC50 H1650
Method: as §1, with “a range of” for “the H460 non-small”, “lines.” for “lung cancer (NSCLC) cell line.”, “follows:” for “follows: H460”, “(2-5000” for “(3000”, “RPMI or DMEM” for “RPMI”, “hours. Absorbance was measured on the Wallac Victor 2 1420 multi-label counter at 544-595 nm.” for “hours.”

CDK2/cyclin E = CDK2/cyclin E (Homo sapiens (Human), UniProt P24941); assay: In-vitro recombinant kinase assay CDK2/cyclin E; format: biochemical; conditions: Table 2; average of duplicate points; read-out: CDK2/Cyclin E Average IC50
Method: (§2) To evaluate the in-vitro kinase potency of the compounds, they were screened against CDK 2 and CDK9. Kinase assays were performed in 96-well plates using recombinant CDK/cyclins generated at Cyclacel. Ltd Dundee, UK. CDK2 and CDK9 assays were performed in a total volume of 25 μl in assay buffer (25 mM b-glycerophosphate, 20 mM MOPS, 5 mM EGTA, 1 mM DTT and 1 mM NaVO3, pH 7.4), into which were added 2-4 μg of active enzyme with appropriate substrates (purified histone H1 for CDK2/cyclin E, and CDK2/cyclin A, biotinyl-Ahx-(YSPTSPS)4 for CDK9/cyclin T1). […] CDK2 reactions were stopped by addition of 25 μl of 75 mM phosphoric acid, followed by filtration through P81 filterplates (Whatman Polyfiltronics, Kent, UK). For CDK9, the reaction was stopped by addition of 25 μl of 75 mM phosphoric acid, then 5 μl of 10 mg/ml avidin was added to each well and further incubated for 2 min followed by filtration as per CDK2 assay. After washing 3 times with 75 mM orthophosphoric acid, plates were dried, scintillant added and incorporated radioactivity measured in a scintillation counter (TopCount, Packard Instruments, Pangbourne, Berks, UK). Compounds for kinase assay were made up as 10 mM stocks in DMSO and diluted into 10% DMSO in assay buffer.
as §2

various cell lines = assay: Alamar blue cytotoxicity assay, average over the cell lines of Table 8; format: cell-based
Method: as §1, with “a range of” for “the H460 non-small”, “lines.” for “lung cancer (NSCLC) cell line.”, “follows:” for “follows: H460”, “(2-5000” for “(3000”, “RPMI or DMEM” for “RPMI”, “hours. Absorbance was measured on the Wallac Victor 2 1420 multi-label counter at 544-595 nm.” for “hours.”

Structure (SMILES): CC[C@H](Nc1nc(NCc2cnc(C)cc2C)c2ncn(C(C)C)c2n1)[C@@H](C)O [Compound [1]]
- IC50 [1]: 500 nM
- IC50 ([1]; Homo sapiens, NCI-H460, 72 h): < 1000 nM
- IC50 (CYP2C19): > 25 µM
- IC50 (H358): 180 nM
- IC50 (MESSA): 160 nM
- half-life at 5 μM (CYP2C9): > 45 min
- IC50 (LoVo): 700 nM
- IC50 (NCI-H929): 350 nM
- IC50 (H1650): 460 nM
- IC50 (CDK2/cyclin E): 20 nM
- cytotoxic potency compared with prior art compounds (in words) (various cell lines; 21 cell lines, versus [A1], [A2] or [A3]): significantly more potent
- IC50 (various cell lines; average over the cell lines of Table 8, read-out: cellular cytotoxicity IC50 Ave): 350 nM
